{"source": "patent US8772503B2", "about": "“Processes for the preparation of deferasirox, and deferasirox polymorphs” (Mapi Pharma Ltd., priority 2009, dated 2014)", "assay": "Heating/drying of the solid form, rechecked by XRPD and DSC", "type": "physicochemical", "details": "for Solid form after heating (XRPD, DSC): heated to 160° C. under vacuum, 5 minutes", "description": "Details of XRPD method used in the tests are mentioned below:\nDetails of DSC method used in the tests are mentioned below:\nHeat from 30° C. to 350° C. at 10° C./min\nForm II was further dried by heating (e.g. 60° C. for 1 h) after being checked by XRPD, DSC, TGA and NMR. The XRPD and DSC of Form II were rechecked following the dehydration process.\nForm III was further dried at 120° C. after being checked by XRPD, DSC, TGA and NMR. The XRPD and DSC were rechecked.\nAmorphous deferasirox was heated to 160° C. under vacuum and kept at this temperature for 5 min. The formed crystal was rechecked by XRPD and DSC."}
{"smiles": "O=C(O)c1ccc(-n2nc(-c3ccccc3O)nc2-c2ccccc2O)cc1", "note": "[Form II, 4-[3,5-Bis(2-hydroxyphenyl)-1H-1,2,4-triazol-1-yl]benzoic acid]", "values": [{"measurement": "Solid form after heating/drying (XRPD, DSC)", "setting": "heated to 60° C. for 1 hr", "value": "converted to Form I"}]}
{"smiles": "O=C(O)c1ccc(-n2nc(-c3ccccc3O)nc2-c2ccccc2O)cc1", "note": "[amorphous deferasirox, 4-[3,5-Bis(2-hydroxyphenyl)-1H-1,2,4-triazol-1-yl]benzoic acid]", "values": [{"measurement": "Solid form after heating (XRPD, DSC)", "value": "converted to Form I"}, {"measurement": "Solid form after heating (XRPD, DSC)", "setting": "listed as Amorphous", "value": "transformed into Form I"}]}
{"smiles": "O=C(O)c1ccc(-n2nc(-c3ccccc3O)nc2-c2ccccc2O)cc1", "note": "[Form V, 4-[3,5-Bis(2-hydroxyphenyl)-1H-1,2,4-triazol-1-yl]benzoic acid]", "values": [{"measurement": "Solid form after heating/drying (XRPD, DSC)", "setting": "dried at 120° C. for 1 hr, vacuum", "value": "converted to Form I"}]}
